Experimental data reported in US10738028B2, “Spiro three-membered ring, spiro five-membered ring peptide deformylase inhibitor and use thereof in antibacteria and anti-tumor” (priority 2016, dated 2020).
≈ marks a conversion by molar mass, not a printed value.

What was measured:
[1] = test system: Enterococcus faecalis (EFA); assay: MIC, two-fold agar dilution (CLSI), clinical isolates; assay type: cell-based
Outline: (§1)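 MIC values come from two-fold agar dilution run per CLSI antimicrobial susceptibility testing procedure.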

[2] = test system: Escherichia coli (including ESBLs, non-ESBLs); assay: as above; assay type: cell-based
Outline: as §1

[3] = test system: methicillin-resistant Staphylococcus aureus (MRSA); assay: as above; assay type: cell-based
Outline: as §1

[4] = test system: methicillin-resistant Staphylococcus epidermidis (MRSE); assay: as above; assay type: cell-based
Outline: as §1

[5] = test system: methicillin-sensitive Staphylococcus aureus (MSSA); assay: as above; assay type: cell-based
Outline: as §1

[6] = test system: methicillin-sensitive Staphylococcus epidermidis (MSSE); assay: as above; assay type: cell-based
Outline: as §1

[7] = test system: HCT-116 colorectal cancer cell line; assay: CCK-8 proliferation inhibition; assay type: cell-based; conditions: Homo sapiens, HCT-116, 72 h, read-out: HCT116 inhibition rate/%
Outline: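 Growth inhibition is read by CCK-8 (1:10 dilution) after 72 h of compound exposure. HCT-116 cells grow in McCoy's 5A containing 10% newborn bovine serum at 2000 cells/well, with 1‰ DMSO as vehicle control.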

[8] = test system: methemoglobin in blood samples of three healthy volunteers; assay: Toxicity on methemoglobin in vitro (whole blood with S9 and NADPH, absorbance at 630 nm); assay type: cell-based, human
Experimental: Because PDF inhibitors such as LBM415 and GSK1322322 can produce active species such as aromatic hydroxylamine and aromatic hydrazines in metabolic process, and cause human methemoglobinemia. To this end, continuous wavelength method was adopted in this invention to scan the absorption spectrum of blood samples in the wavelength range of 500 to 700 nm in the ultraviolet-visible spectrophotometer, and the contents of methemoglobin in blood samples of three healthy volunteers were calculated, after being effected by the synthesized compounds.
Experimental materials: Nicotinamide adenine dinucleotide phosphate (NADPH) reduction system: glucose-6-disodium phosphate, nicotinamide adenine dinucleoside phosphate and glucose-6-phosphate dehydrogenase (purchased from Shanghai yuanye Bio-Technology Co., Ltd) were added to 1 mL of phosphate buffer solution (PBS, pH 7.4), and the mixture was shaked in a shaker type water bath at 37° C. for 10 min, and then cooled to 0° C. Mixed human hepatocytes fraction S9 was purchased from Xenotech (20 mg S9 protein/1 mL suspension medium). Compounds were prepared to stock solution at a concentration of 50 mM, which was stored at −20° C. for use. Dapsone was used as positive control experimental reagent, which was purchased from Sigma Aldrich. 1% w/v triton X-100 was self-prepared. Blood samples were collected using Vacutainer tubes containing EDTA anticoagulants (BD, Franklin Lakes, USA), which were sampled from three healthy volunteers and used immediately after sampling.
Preparation of incubation system for blood samples and drugs: 250 μL of incubation system was consist of 220 μL of whole blood, 25 μL of S9 (final concentration: 2 mg S9 protein/mL incubation solution), 2.5 μL of NADPH form system (final concentration: 10 mM G-6-P, 1 mM NADP, 7.5 Units/mL) and 2.5 μL of stock solution of a compound (final concentration 500 μM). […] of incubation system was placed in an Eppendorf tube and incubated for 5 hours at 37° C. in water bath.
Determination of the content of methemoglobin: 60 μL of an incubated sample was taken and lysed with 3.0 mL of 1% Triton X-100. The content of methemoglobin (MetHb) was measured by an ultraviolet-visible spectrophotometer, with the Triton X-100 solution used as blank control. A sample was placed in a cuvette, 1 minute later, the spectrums of the sample in the wavelength range from 500 nm to 700 nm were recorded. The sample was added with 2 mg of potassium ferricyanide, and was allowed to stay stationary for 2 minutes for completely oxidization of ferrous iron in the sample, and standard spectrum of methemoglobin with saturated potassium ferricyanide. The percentage of methemoglobin formation (MetHb %) was obtained by the ratio of absorbance at 630 nm. MetHb %=(A′−AB′)/AM′, wherein, A′ was the total absorbance of the sample at 630 nm, AB′ was the base absorbance of the reduced blood in the sample at 630 nm, and AM′ was the absorbance of oxidized blood with saturated potassium ferricyanide at 630 nm.

[9] = MIC in vitro anti-bacterial experiments, Gram-positive bacteria; assay type: cell-based; conditions: read-out: minimum inhibitory concentration against Gram-positive bacteria
Source text: 1. The invention adopts the two-fold agar dilution method recommended by the operating procedure of antimicrobial susceptibility testing set by American Clinical and Laboratory Standards Institute (CLSI) to determine the Minimum Inhibitory Concentration (MIC) of the test samples against the tested strains.

CCCC[C@H](CN(O)C=O)C(=O)N1CC2(CC2)C[C@H]1C(=O)Nc1cc(C(C)(C)C)on1 [Example 3]
MIC (anti-bacterial activity) ([1]; strain EFA 14-1): 0.5 µg/mL (≈ 1.15 µM) | MIC (anti-bacterial activity) ([1]; strain EFA 14-2): 0.5 µg/mL (≈ 1.15 µM) | MIC (anti-bacterial activity) ([1]; strain EFA 14-3): 0.5 µg/mL (≈ 1.15 µM) | MIC (anti-bacterial activity) ([1]; strain EFA 14-5): > 128 µg/mL | MIC (anti-bacterial activity) ([2]; strain ECO+ 14-1): 1 µg/mL (≈ 2.3 µM) | MIC (anti-bacterial activity) ([2]; strain ECO+ 14-2): 64 µg/mL (≈ 147 µM) | MIC (anti-bacterial activity) ([2]; strain ECO− 14-1): 64 µg/mL (≈ 147 µM) | MIC (anti-bacterial activity) ([2]; strain ECO− 14-2): 64 µg/mL (≈ 147 µM) | MIC (anti-bacterial activity) ([3]; strain MRSA 14-1): 0.06 µg/mL (≈ 0.138 µM) | MIC (anti-bacterial activity) ([3]; strain MRSA 14-2): 0.06 µg/mL (≈ 0.138 µM) | MIC (anti-bacterial activity) ([3]; strain MRSA 14-4): < 0.008 µg/mL | MIC (anti-bacterial activity) ([3]; strain MRSA 14-5): 0.06 µg/mL (≈ 0.138 µM) | MIC (anti-bacterial activity) ([3]; strain printed MRSA 14-1 (second line of that name, r23, before MRSE 14-2)): 0.03 µg/mL (≈ 0.069 µM) | MIC (anti-bacterial activity) ([4]; strain MRSE 14-2): 0.03 µg/mL (≈ 0.069 µM) | MIC (anti-bacterial activity) ([4]; strain MRSE 14-3): 0.015 µg/mL (≈ 0.0345 µM) | MIC (anti-bacterial activity) ([4]; strain MRSE 14-4): 0.03 µg/mL (≈ 0.069 µM) | MIC (anti-bacterial activity) ([5]; strain MSSA 14-1): 0.125 µg/mL (≈ 0.288 µM) | MIC (anti-bacterial activity) ([5]; strain MSSA 14-2): 0.125 µg/mL (≈ 0.288 µM) | MIC (anti-bacterial activity) ([5]; strain MSSA 14-3): 0.25 µg/mL (≈ 0.575 µM) | MIC (anti-bacterial activity) ([5]; strain MSSA 14-4): 0.06 µg/mL (≈ 0.138 µM) | MIC (anti-bacterial activity) ([6]; strain MSSE 14-1): 0.03 µg/mL (≈ 0.069 µM) | MIC (anti-bacterial activity) ([6]; strain MSSE 14-2): 0.125 µg/mL (≈ 0.288 µM) | MIC (anti-bacterial activity) ([6]; strain MSSE 14-3): 0.015 µg/mL (≈ 0.0345 µM) | MIC (anti-bacterial activity) ([6]; strain MSSE 14-4): 0.015 µg/mL (≈ 0.0345 µM) | inhibition at 30 µM [7]: 2% | MetHb % (n = 3) ([8]; 500 μM compound, whole blood + S9 + NADPH, 5 hours at 37° C.): 3.33 ± 0.06% | probability of methemoglobin formation in blood compared with the control drugs LBM415 and GSK1322322 ([8]; toxicity test in vitro, in words): lower probability of methemoglobin formation in blood | MIC [9]: < 0.008 µg/mL
